In brackets after ≈: the same amount, converted by molar mass.

For 12 molecules, bioavailability and MIC results are on record in ChEMBL document CHEMBL1155983, “Synthesis of novel [1,2]-diamines with antituberculosis activity” (Bioorg Med Chem Lett, 2009).

System in one data set: not listed separately
The experiment in a line: Oral bioavailability in rat. The data set is classed as ADME, organism-based. The following applies: in vivo.
In turn, `CC(C)=CCC/C(C)=C/CNCCNC1C2CC3CC(C2)CC1C3.Cl.Cl` (centres undefined) returned a bioavailability of 12%.

The next data set has as its system Mycobacterium tuberculosis. The experiment in a line: Antituberculosis activity against Mycobacterium tuberculosis H37Rv by microbroth dilution assay.
Settings: not given
In kind it is functional.
`CC(C)=CCC/C(C)=C/CNCCNC1C2CC3CC(C2)CC1C3.Cl.Cl` (centres undefined) showed a minimum inhibitory concentration (MIC) of 0.6 µM.
Molecule `CC(C)=CCC/C(C)=C/CNCCNC1C2CC3CC(C2)CC1(O)C3` (centres undefined) yielded a minimal inhibitory concentration (MIC) of 0.6 µM (≈ 0.208 µg/mL).
As to `CC(C)=CCC/C(C)=C/CNCCNC1C2CC3CC1CC(F)(C3)C2` (centres undefined), the lowest concentration to inhibit growth (MIC) was 0.6 µM (≈ 0.209 µg/mL).
With `CC(C)=CCC/C(C)=C/C(C)NCCNC1C2CC3CC(C2)CC1C3` (centres undefined), the minimal inhibitory concentration (MIC) was found to be 1.2 µM (≈ 0.414 µg/mL). This MIC is about 2-fold higher than that of the molecule before.
With `CCC(/C=C(\C)CCC=C(C)C)NCCNC1C2CC3CC(C2)CC1C3` (centres undefined), the MIC worked out at 1.2 µM (≈ 0.43 µg/mL).
Molecule `CC(C)=CCC/C(C)=C/C(Cc1ccccc1)NCCNC1C2CC3CC(C2)CC1C3` (centres undefined) returned an MIC of 1 µM (≈ 0.421 µg/mL).
Take `COC12CC3CC(C1)C(NCCNC/C=C(\C)CCC=C(C)C)C(C3)C2` (centres undefined): it took 1.7 µM (≈ 0.613 µg/mL) to inhibit growth (MIC). This MIC is about 1.7-fold higher than that of the molecule before.
The same measure, in the same setting: in the case of `CC(C)=CCC/C(C)=C/CNCCNC1C2CC3CC(C2)CC1(F)C3` (centres undefined) it was 0.3 µM (≈ 0.105 µg/mL).
In turn, `CC(C)=CCC/C(C)=C/CNCCNC1C2CC3CC1CC(O)(C3)C2` (centres undefined) returned an MIC of 8.6 µM (≈ 2.98 µg/mL).
Molecule `COC12CC3CC(CC(C3)C1NCCNC/C=C(\C)CCC=C(C)C)C2` (centres undefined) returned an MIC of 0.5 µM (≈ 0.18 µg/mL).
Molecule `CC(C)=CCC/C(C)=C/C(Cc1ccc(F)cc1)NCCNC1C2CC3CC(C2)CC1C3` (centres undefined) gave an MIC of 3 µM (≈ 1.32 µg/mL).
`CC(C)=CCC/C(C)=C/C(Cc1ccc(OC(F)(F)F)cc1)NCCNC1C2CC3CC(C2)CC1C3` (centres undefined) yielded an MIC of 5.2 µM (≈ 2.62 µg/mL).

System in the next data set: not listed separately
The experiment in a line: Oral bioavailability in dog. In kind it is ADME, organism-based, Canis lupus familiaris. Particulars: in vivo.
On to `CC(C)=CCC/C(C)=C/CNCCNC1C2CC3CC(C2)CC1C3.Cl.Cl` (centres undefined), for which the bioavailability was determined as 3.8%.
